Consider 16 compounds from patent publication US20250223268A1, “4-Methylsulfonylbenzamide Compound, Preparation Method, Herbicidal Composition And Use” (Jiangsu Flag Chemical Industry Co., Ltd., priority 2022, published 2025).

Common to all, as to test: Greenhouse herbicidal activity assay, post-emergence
Format in all cases: in vivo
Holding throughout (settings): Post-emergence test, rate 150 g a.i./hm^2, grade by fresh weight inhibition rate

Assay [1] has as its system Cyperus iria. The method in brief:
(§1)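 Weeds and crops grown in pots of nutrient soil in a growth chamber to the 3-6 leaf stage, then foliar-sprayed and air-dried. Fresh weight inhibition scored 14-21 days after treatment and graded A (≥80%) through E (<20%).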

Assay [2] concerns Digitaria sanguinalis. A digest of the protocol: as §1
Assay [3] relates to Echinochloa crusgalli. A digest of the protocol:
as §1

For assay [4], the system named is Leptochloa chinensis. The method in brief: as §1
Assay [5] relates to Eclipta prostrata. A digest of the protocol: as §1

Consider `CCc1nnc(NC(=O)c2ccc(S(C)(=O)=O)c([S+]([O-])C3CCC3)c2Cl)o1` (racemic) [Compound 3-425], for which the “Control efficacy grade, Cyperus iria” value in assay [1] is “A (Fresh weight inhibition rate≥80% to 100%)”. Besides, in assay [2], the “Control efficacy grade, Digitaria sanguinalis” value is “A (Fresh weight inhibition rate≥80% to 100%)”. In addition, the “Control efficacy grade, Echinochloa crusgalli” value in assay [3] is recorded as “A (Fresh weight inhibition rate≥80% to 100%)”. Besides, the “Control efficacy grade, Leptochloa chinensis” value in assay [4] is reported as “A (Fresh weight inhibition rate≥80% to 100%)”. Besides, the “Control efficacy grade, Eclipta prostrata” value in assay [5] was “A (Fresh weight inhibition rate≥80% to 100%)”.

Regarding `CCc1nnc(NC(=O)c2ccc(S(C)(=O)=O)c([S+]([O-])C3CCCC3)c2Cl)o1` (racemic) [Compound 3-430], the “Control efficacy grade, Cyperus iria” value in assay [1] is given as “A (Fresh weight inhibition rate≥80% to 100%)”. For the same compound, in assay [2], the “Control efficacy grade, Digitaria sanguinalis” value is on record as “A (Fresh weight inhibition rate≥80% to 100%)”. Moreover, in assay [3], the “Control efficacy grade, Echinochloa crusgalli” value is “A (Fresh weight inhibition rate≥80% to 100%)”. In addition, in assay [4], the “Control efficacy grade, Leptochloa chinensis” value is “A (Fresh weight inhibition rate≥80% to 100%)”. In addition, the “Control efficacy grade, Eclipta prostrata” value in assay [5] is “A (Fresh weight inhibition rate≥80% to 100%)”.

On to `CCc1nnc(NC(=O)c2ccc(S(C)(=O)=O)c([S+]([O-])C3CCCCC3)c2Cl)o1` (racemic) [Compound 3-435], for which the “Control efficacy grade, Cyperus iria” value in assay [1] is reported as “A (Fresh weight inhibition rate≥80% to 100%)”. Also, the “Control efficacy grade, Digitaria sanguinalis” value in assay [2] is given as “A (Fresh weight inhibition rate≥80% to 100%)”. The “Control efficacy grade, Echinochloa crusgalli” value in assay [3] was “A (Fresh weight inhibition rate≥80% to 100%)”. Besides, the “Control efficacy grade, Leptochloa chinensis” value in assay [4] was “A (Fresh weight inhibition rate≥80% to 100%)”. In addition, the “Control efficacy grade, Eclipta prostrata” value in assay [5] is listed as “A (Fresh weight inhibition rate≥80% to 100%)”.

On to `CCc1nnc(NC(=O)c2ccc(S(C)(=O)=O)c([S+]([O-])CC(F)(F)F)c2Cl)o1` (racemic) [Compound 3-440], for which the “Control efficacy grade, Cyperus iria” value in assay [1] is “A (Fresh weight inhibition rate≥80% to 100%)”. In addition, the “Control efficacy grade, Digitaria sanguinalis” value in assay [2] is recorded as “A (Fresh weight inhibition rate≥80% to 100%)”. Further, the “Control efficacy grade, Echinochloa crusgalli” value in assay [3] is on record as “A (Fresh weight inhibition rate≥80% to 100%)”. Moreover, the “Control efficacy grade, Leptochloa chinensis” value in assay [4] is listed as “A (Fresh weight inhibition rate≥80% to 100%)”. The “Control efficacy grade, Eclipta prostrata” value in assay [5] is “A (Fresh weight inhibition rate≥80% to 100%)”.

On to `CCc1nnc(NC(=O)c2ccc(S(C)(=O)=O)c([S+]([O-])CC(F)F)c2Cl)o1` (racemic) [Compound 3-445], for which the “Control efficacy grade, Cyperus iria” value in assay [1] was “A (Fresh weight inhibition rate≥80% to 100%)”. The “Control efficacy grade, Digitaria sanguinalis” value in assay [2] is listed as “A (Fresh weight inhibition rate≥80% to 100%)”. The “Control efficacy grade, Echinochloa crusgalli” value in assay [3] was “A (Fresh weight inhibition rate≥80% to 100%)”. Also, in assay [4], the “Control efficacy grade, Leptochloa chinensis” value is “A (Fresh weight inhibition rate≥80% to 100%)”. The “Control efficacy grade, Eclipta prostrata” value in assay [5] was “A (Fresh weight inhibition rate≥80% to 100%)”.

Consider `C=CC[S+]([O-])c1c(S(C)(=O)=O)ccc(C(=O)Nc2nnc(CC)o2)c1Cl` (racemic) [Compound 3-455], for which the “Control efficacy grade, Cyperus iria” value in assay [1] was “A (Fresh weight inhibition rate≥80% to 100%)”. Also, the “Control efficacy grade, Digitaria sanguinalis” value in assay [2] was “A (Fresh weight inhibition rate≥80% to 100%)”. Moreover, the “Control efficacy grade, Echinochloa crusgalli” value in assay [3] was “A (Fresh weight inhibition rate≥80% to 100%)”. Also, the “Control efficacy grade, Leptochloa chinensis” value in assay [4] is listed as “A (Fresh weight inhibition rate≥80% to 100%)”. Moreover, in assay [5], the “Control efficacy grade, Eclipta prostrata” value is “A (Fresh weight inhibition rate≥80% to 100%)”.

As to `CCc1nnc(NC(=O)c2ccc(S(C)(=O)=O)c([S+]([O-])CCCl)c2Cl)o1` (racemic) [Compound 3-495], the “Control efficacy grade, Cyperus iria” value in assay [1] is on record as “A (Fresh weight inhibition rate≥80% to 100%)”. Further, the “Control efficacy grade, Digitaria sanguinalis” value in assay [2] is reported as “A (Fresh weight inhibition rate≥80% to 100%)”. Besides, in assay [3], the “Control efficacy grade, Echinochloa crusgalli” value is listed as “A (Fresh weight inhibition rate≥80% to 100%)”. In assay [4], the “Control efficacy grade, Leptochloa chinensis” value is listed as “A (Fresh weight inhibition rate≥80% to 100%)”. For the same compound, in assay [5], the “Control efficacy grade, Eclipta prostrata” value is reported as “A (Fresh weight inhibition rate≥80% to 100%)”.

Turning to `CC(C)c1nnc(NC(=O)c2ccc(S(C)(=O)=O)c([S+]([O-])CC3CC3)c2Cl)o1` (racemic) [Compound 3-531], the “Control efficacy grade, Cyperus iria” value in assay [1] was “A (Fresh weight inhibition rate≥80% to 100%)”. In addition, the “Control efficacy grade, Digitaria sanguinalis” value in assay [2] is recorded as “A (Fresh weight inhibition rate≥80% to 100%)”. The “Control efficacy grade, Echinochloa crusgalli” value in assay [3] is given as “A (Fresh weight inhibition rate≥80% to 100%)”. Further, the “Control efficacy grade, Leptochloa chinensis” value in assay [4] is listed as “A (Fresh weight inhibition rate≥80% to 100%)”. The “Control efficacy grade, Eclipta prostrata” value in assay [5] was “A (Fresh weight inhibition rate≥80% to 100%)”.

On to `CC(C)c1nnc(NC(=O)c2ccc(S(C)(=O)=O)c([S+]([O-])C3CC3)c2Cl)o1` (racemic) [Compound 3-536], for which the “Control efficacy grade, Cyperus iria” value in assay [1] was “A (Fresh weight inhibition rate≥80% to 100%)”. The “Control efficacy grade, Digitaria sanguinalis” value in assay [2] is “B (Fresh weight inhibition rate≥260% to <80%)”. In addition, in assay [3], the “Control efficacy grade, Echinochloa crusgalli” value is on record as “A (Fresh weight inhibition rate≥80% to 100%)”. Besides, the “Control efficacy grade, Leptochloa chinensis” value in assay [4] is given as “A (Fresh weight inhibition rate≥80% to 100%)”. The “Control efficacy grade, Eclipta prostrata” value in assay [5] was “A (Fresh weight inhibition rate≥80% to 100%)”.

In the case of `CC(C)c1nnc(NC(=O)c2ccc(S(C)(=O)=O)c([S+]([O-])C3CCC3)c2Cl)o1` (racemic) [Compound 3-541], the “Control efficacy grade, Cyperus iria” value in assay [1] is reported as “A (Fresh weight inhibition rate≥80% to 100%)”. The “Control efficacy grade, Digitaria sanguinalis” value in assay [2] is reported as “B (Fresh weight inhibition rate≥260% to <80%)”. The “Control efficacy grade, Echinochloa crusgalli” value in assay [3] was “C (Fresh weight inhibition rate≥40% to <60%)”. Besides, in assay [4], the “Control efficacy grade, Leptochloa chinensis” value was “A (Fresh weight inhibition rate≥80% to 100%)”. The “Control efficacy grade, Eclipta prostrata” value in assay [5] is listed as “A (Fresh weight inhibition rate≥80% to 100%)”.

Turning to `CC(C)c1nnc(NC(=O)c2ccc(S(C)(=O)=O)c([S+]([O-])CC(F)(F)F)c2Cl)o1` (racemic) [Compound 3-556], the “Control efficacy grade, Cyperus iria” value in assay [1] is recorded as “A (Fresh weight inhibition rate≥80% to 100%)”. Moreover, the “Control efficacy grade, Digitaria sanguinalis” value in assay [2] is “B (Fresh weight inhibition rate≥260% to <80%)”. Moreover, the “Control efficacy grade, Echinochloa crusgalli” value in assay [3] is on record as “B (Fresh weight inhibition rate≥260% to <80%)”. The “Control efficacy grade, Leptochloa chinensis” value in assay [4] is recorded as “A (Fresh weight inhibition rate≥80% to 100%)”. Besides, the “Control efficacy grade, Eclipta prostrata” value in assay [5] is given as “A (Fresh weight inhibition rate≥80% to 100%)”.

As for `CCC[S+]([O-])c1c(S(C)(=O)=O)ccc(C(=O)Nc2nnc(C3CC3)o2)c1Cl` (racemic) [Compound 3-616], in assay [1], the “Control efficacy grade, Cyperus iria” value is “A (Fresh weight inhibition rate≥80% to 100%)”. In assay [2], the “Control efficacy grade, Digitaria sanguinalis” value was “A (Fresh weight inhibition rate≥80% to 100%)”. Besides, the “Control efficacy grade, Echinochloa crusgalli” value in assay [3] is “A (Fresh weight inhibition rate≥80% to 100%)”. Moreover, the “Control efficacy grade, Leptochloa chinensis” value in assay [4] is reported as “A (Fresh weight inhibition rate≥80% to 100%)”. Further, the “Control efficacy grade, Eclipta prostrata” value in assay [5] was “A (Fresh weight inhibition rate≥80% to 100%)”.

As to `CC(C)[S+]([O-])c1c(S(C)(=O)=O)ccc(C(=O)Nc2nnc(C3CC3)o2)c1Cl` (racemic) [Compound 3-621, 2-chloro-N-(5-cyclopropyl-1,3,4-oxadiazol-2-yl)-3-(isopropylsulfinyl)-4-(methylsulfonyl)benzamide], the pest or weed control at 150 g/ha lay in the range of 80 to 100% in assay [1] (Cyperus iria, read-out: Control efficacy grade, Cyperus iria); 80 to 100% in assay [2] (Digitaria sanguinalis, read-out: Control efficacy grade, Digitaria sanguinalis); 80 to 100% in assay [3] (Echinochloa crus-galli, read-out: Control efficacy grade, Echinochloa crusgalli); 80 to 100% in assay [4] (Dinebra chinensis, read-out: Control efficacy grade, Leptochloa chinensis); 80 to 100% in assay [5] (Eclipta prostrata, read-out: Control efficacy grade, Eclipta prostrata).

As to `CCCC[S+]([O-])c1c(S(C)(=O)=O)ccc(C(=O)Nc2nnc(C3CC3)o2)c1Cl` (racemic) [Compound 3-626], in assay [1], the “Control efficacy grade, Cyperus iria” value is listed as “A (Fresh weight inhibition rate≥80% to 100%)”. Also, in assay [2], the “Control efficacy grade, Digitaria sanguinalis” value is recorded as “A (Fresh weight inhibition rate≥80% to 100%)”. The “Control efficacy grade, Echinochloa crusgalli” value in assay [3] is recorded as “A (Fresh weight inhibition rate≥80% to 100%)”. Also, the “Control efficacy grade, Leptochloa chinensis” value in assay [4] is reported as “A (Fresh weight inhibition rate≥80% to 100%)”. Also, the “Control efficacy grade, Eclipta prostrata” value in assay [5] is listed as “A (Fresh weight inhibition rate≥80% to 100%)”.

Turning to `CS(=O)(=O)c1ccc(C(=O)Nc2nnc(C3CC3)o2)c(Cl)c1[S+]([O-])CC1CC1` (racemic) [Compound 3-647], in assay [1], the “Control efficacy grade, Cyperus iria” value is given as “A (Fresh weight inhibition rate≥80% to 100%)”. Moreover, in assay [2], the “Control efficacy grade, Digitaria sanguinalis” value is “A (Fresh weight inhibition rate≥80% to 100%)”. Moreover, the “Control efficacy grade, Echinochloa crusgalli” value in assay [3] is given as “A (Fresh weight inhibition rate≥80% to 100%)”. Also, the “Control efficacy grade, Leptochloa chinensis” value in assay [4] is on record as “A (Fresh weight inhibition rate≥80% to 100%)”. Also, the “Control efficacy grade, Eclipta prostrata” value in assay [5] is given as “A (Fresh weight inhibition rate≥80% to 100%)”.

Regarding `CS(=O)(=O)c1ccc(C(=O)Nc2nnc(C3CC3)o2)c(Cl)c1[S+]([O-])C1CCC1` (racemic) [Compound 3-657], the “Control efficacy grade, Cyperus iria” value in assay [1] was “A (Fresh weight inhibition rate≥80% to 100%)”. The “Control efficacy grade, Digitaria sanguinalis” value in assay [2] is “A (Fresh weight inhibition rate≥80% to 100%)”. In addition, the “Control efficacy grade, Echinochloa crusgalli” value in assay [3] is “B (Fresh weight inhibition rate≥260% to <80%)”. The “Control efficacy grade, Leptochloa chinensis” value in assay [4] is “A (Fresh weight inhibition rate≥80% to 100%)”. Also, the “Control efficacy grade, Eclipta prostrata” value in assay [5] is given as “A (Fresh weight inhibition rate≥80% to 100%)”.
